Experimental data published in patent publication US7566722B2, “Triazolopyrimidine derivatives as ADP P2Y12 receptor antagonists” (Janssen Pharmaceutica, N.V., priority 2006, dated 2009).

What was measured:
ADP P2Y12 receptor = biological target: T1, ADP P2Y12 receptor (Homo sapiens, UniProt Q9H244); assay: FLIPR calcium assay transducing Gi-coupled signaling to the Gq pathway (inhibition of ADP-induced calcium mobilization); assay type: cell-based; details: HEK 293 cells co-transfected with P2Y12 and Gqi5, ADP at EC60-70 dose
T1 construct: expressed in transfected cells
Source text: A FLIPR Calcium Assay Transducing Gi-Coupled Signaling to the Gq Pathway
The ADP P2Y12 subtype is a Gi coupled GPCR, which mediates inhibition of adenylate cyclase leading to decreased cAMP while Gq proteins primarily activate phospholipase C, which stimulates inositol-1,4,5-triphosphate (IP3) formation and a subsequent increase in intracellular Ca^2+ concentration, which can be easily measured by FLIPR. Prior to the development of a method to convert a Gi coupled GPCR signaling to a Gq coupled GPCR signaling, a significant barrier existed for the functional testing and screening of Gi coupled GPCRs. One popular method, GTPγS migration, is slow, produces a small signal and generates radioactive waste. The discovery that a small switch in the amino acid sequence in the Gi protein could convert it to a protein mediating a Gq coupled response has led to the development of robust, high throughput assays for this valuable receptor subtype.
The FLIPR-based HTS assay transducing the Gi signaling to the Gq pathway is described below.
pcDNA3hygroP2Y12 containing a hygromycin resistance gene and pLEC1-Gqi5-HA containing a neomycin resistance gene (licensed from Molecular Devices, Sunnyvale, Calif.) were co-transfected into Human embryonic kidney (HEK) 293 cells with SuperFect (Qiagen, Valencia, Calif.). Cell clones were selected in the presence of 600 μg/ml hygromycin B (Life Technologies, Carlsbad, Calif.) and 1 mg/ml of G418 (Mediatech, Herndon, Va.). Drug resistant colonies were picked and screened by FLIPR and the gene expression was further confirmed by RT-PCR. Positive clones were maintained in growth medium (DMEM supplemented with 10% FBS, 1× p/s) containing 400 μg/ml of G418 and 200 μg/ml of hygromycin.
The day before the assay, cells are seeded in clear, flat-bottom black-wall, tissue culture treated polystyrene 96- or 384-well plates and incubated at 37° C., 5% CO2. 50 μl of complete dye loading solution (FLIPR Calcium Assay Kit, Molecular Devices) was added to each well containing 100 μl of culture media. The cells were incubated for at least 30 min at 37° C., in 5% CO2 before initiating the assay on the FLIPR. The agonist effect of ADP was tested and EC50 was determined prior to compound testing. The EC60-70 dose was used.
The antagonist compounds were prepared at 4× and the agonists were diluted at 5× the concentration desired in the test wells, and then aliquoted into the sample plates. The sample plates and the cell plate were placed in the FLIPR assay chamber. A first addition (50 μl) was made at the start of reading and a second addition (50 μl) was made after 5 min of reading. Raw fluorescence data was exported for each well and tabulated versus time within an ASCII file. Data was then imported into Excel and the peak response over the basal level was determined. The percent inhibition for each compound was calculated by the change in fluorescent density as a % inhibition of the control ADP response to obtain an IC50, as shown in Table 1 (wherein N/A means Not Applicable).

P2Y12 receptor = biological target: T2, P2Y12 receptor (Homo sapiens, UniProt Q9H244); assay: Whole cell receptor binding assay, 2-MeS[3H]-ADP; details: HEK 293 cells stably transfected with P2Y12; 2-MeS[3H]-ADP 3 nM; 30 min at 37° C.; read-out: Inhibition of Receptor Binding (IC50 μM)
T2 construct: expressed in transfected cells
Method: A whole cell-binding assay for 2-MeS [^3H]-ADP (Custom synthesized by Amersham BioScience, Piscataway, N.J.) to the P2Y12 receptor was performed.
A P2Y12 cDNA containing hygromycin resistant gene was transfected in HEK 293 cells. A stable cell line was obtained by a cloning selection method. The cells were cultured in DMEM supplemented with 10% FBS and 1× of p/s.
On the day of the assay, the cells were harvested and resuspended in 0.25% BSA-DMEM and adjusted to a cell concentration of 1.6×10^6/ml. 15 μl of each compound was mixed with 120 μl of cell suspension in 96 well assay plates and incubated for 5 min prior to the addition of the radio-labeled ligand 2-MeS[^3H]-ADP (3 nM final in 0.25% BSA-DMEM) or unlabeled […] (for non-specific binding). The reaction was then incubated for 30 min at 37° C. and stopped by adding cold DMEM. The labeled and unlabeled cells were separated by a filtration method using a Packard Filtermate 196 on to the unfilter-96 GF/B plate. The plates were dyed in a 37° C. oven for 1-2 hours and 50 μl of MicroScint-20 (PerkinElmer) was added to each well. The radioactivity was measured using a TOPCOUNT beta counter (Packard). The percent inhibition for each compound was calculated by the change in radioactivity as a % inhibition of the control to obtain an IC50, as shown in Table 2.

platelets = assay: In vitro platelet aggregation (ADP-induced, washed platelets); assay type: cell-based; details: Homo sapiens, washed platelets from healthy volunteers, agonist giving 60-70% aggregation, % inhibition of control ADP response
Method: Platelet aggregation studies were performed according to a published method (Bednar, B., Condra, C., Gould, R. J., and Connolly, T. M., Throm. Res., 77:453-463 (1995). Platelet-rich plasma (PRP) concentrates prepared from healthy volunteers who were aspirin free for at least 7 days by venipuncture using ACD-A as anticoagulant was purchased from Biological Specialties, Inc. (Colmar, Pa.). PRP was centrifuged at 730 g for 15 min. The platelet pellet was washed twice in CGS buffer (13 mM sodium citrate, 30 mM glucose, 120 mM NaCl, pH 6.5) containing 1 μ/ml apyrase (grade V, Sigma-Aldrich, St. Louis, Mo.), 1 mM EGTA, and resuspended in Tyrode's buffer (140 mM NaCl, 2.7 mM KCl, 12 mM NaHCO3, 0.76 mM Na2HPO4, 5.5 mM dextrose, 5.0 mM Hepes, 0.2% BSA, pH 7.4). The platelets were diluted to 3×10^8 platelets/ml and kept >45 min at 37° C. before use. 105 μl of washed platelets, 2 mM CaCl2 and […] of fibrinogen were added to a 96-well microliter plate.
Platelet aggregation was initiated by the addition of serial concentrations of ADP (BioData Corp. Horsham, Pa.). Buffer was added to one set of control wells. The assay plate was stirred constantly and intermittently placed in a microplate reader (Softmax, Molecular Devices, Menlo Park, Calif.) to read optical density (650 nm) at 0 and 5 minutes after the addition of the compound solutions. Aggregation was calculated as the decrease in optical density between the time 0- and 5-min measurements and expressed as % of aggregation. For the inhibition assay, platelet aggregation was conducted as described above except for compound additions. Test compounds were prepared in 100% DMSO and stored.
On the day of the assay, test compounds were diluted in the buffer containing 3% of DMSO as a 10× working solution. 15 μl of compound solutions were added to 105 μl of platelets 5 min prior to the addition of CaCl2 and fibrinogen.

T2 sequence (Q9H244 whole entry): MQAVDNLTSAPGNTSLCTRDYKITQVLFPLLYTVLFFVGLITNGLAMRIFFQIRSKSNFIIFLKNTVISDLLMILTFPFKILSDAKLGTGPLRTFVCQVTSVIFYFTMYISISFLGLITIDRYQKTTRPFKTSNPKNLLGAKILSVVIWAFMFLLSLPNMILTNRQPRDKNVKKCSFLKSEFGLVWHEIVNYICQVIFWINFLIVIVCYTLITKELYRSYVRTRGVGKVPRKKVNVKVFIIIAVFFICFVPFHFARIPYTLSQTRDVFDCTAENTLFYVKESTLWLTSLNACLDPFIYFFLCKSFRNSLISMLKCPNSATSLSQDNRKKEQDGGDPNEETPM
T1 sequence (Q9H244 whole entry): as above

Compound | IC50 (ADP P2Y12 receptor) | IC50 (P2Y12 receptor) | IC50 (platelets)
CCCSc1nc(N[C@@H]2C[C@H]2c2ccccc2)c2nnn([C@@H]3C[C@H](Cn4ncnn4)[C@@H](O)[C@H]3O)c2n1 (mixture of isomers) [Cpd 3, (1R,2S,3R,5R)-3-{7-[(1RS,2SR)-2-phenyl-cyclopropylamino]-5-propylsulfanyl-[1,2,3]triazolo[4,5-d]pyrimidin-3-yl}-5-tetrazol-2-ylmethyl-cyclopentane-1,2-diol] | 0.595 µM | 0.148 µM | 1.24 µM
CCCSc1nc(N[C@@H]2C[C@H]2c2ccccc2)c2nnn([C@@H]3C[C@H](Cn4cnnn4)[C@@H](O)[C@H]3O)c2n1 (mixture of isomers) [Cpd 4, (1R,2S,3R,5R)-3-{7-[(1RS,2SR)-2-phenyl-cyclopropylamino]-5-propylsulfanyl-[1,2,3]triazolo[4,5-d]pyrimidin-3-yl}-5-tetrazol-1-ylmethyl-cyclopentane-1,2-diol] | 0.799 µM | 0.371 µM | 1.15 µM
CCCSc1nc(N[C@@H]2C[C@H]2c2ccccc2)c2nnn([C@@H]3C[C@H](Cn4ccnc4)[C@@H](O)[C@H]3O)c2n1 (mixture of isomers) [Cpd 5, (1S,2R,3R,5R)-3-imidazol-1-ylmethyl-5-{7-[(1RS,2SR)-2-phenyl-cyclopropylamino]-5-propylsulfanyl-[1,2,3]triazolo[4,5-d]pyrimidin-3-yl}-cyclopentane-1,2-diol] | 0.805 µM | 0.26 µM | 0.529 µM
CCCSc1nc(N[C@@H]2C[C@H]2c2ccccc2)c2nnn([C@@H]3C[C@H](Cn4nccn4)[C@@H](O)[C@H]3O)c2n1 (mixture of isomers) [Cpd 6, (1R,2S,3R,5R)-3-{7-[(1RS,2SR)-2-phenyl-cyclopropylamino]-5-propylsulfanyl-[1,2,3]triazolo[4,5-d]pyrimidin-3-yl}-5-[1,2,3]triazol-2-ylmethyl-cyclopentane-1,2-diol] | 0.98 µM | 0.437 µM | 0.954 µM
CCCSc1nc(NCC(F)(F)F)c2nnn([C@@H]3C[C@H](c4nnn[nH]4)[C@@H](O)[C@H]3O)c2n1 [Cpd 8, (1R,2S,3R,5R)-3-[5-propylsulfanyl-7-(2,2,2-trifluoro-ethylamino)-[1,2,3]triazolo[4,5-d]pyrimidin-3-yl]-5-(1H-tetrazol-5-yl)-cyclopentane-1,2-diol] | 3.12 µM | 0.665 µM | 1.21 µM
CCCSc1nc(NC[C@@H]2CCCO2)c2nnn([C@@H]3C[C@H](c4nnn[nH]4)[C@@H](O)[C@H]3O)c2n1 [Cpd 9, (1R,2S,3R,5R)-3-(5-propylsulfanyl-7-{[(2S)-tetrahydro-furan-2-ylmethyl]-amino}-[1,2,3]triazolo[4,5-d]pyrimidin-3-yl)-5-(1H-tetrazol-5-yl)-cyclopentane-1,2-diol] | 2.02 µM | 0.237 µM | 4.37 µM

Compounds with a lower IC50 (ADP P2Y12 receptor), results first:

IC50 (ADP P2Y12 receptor) | IC50 (P2Y12 receptor) | Compound | IC50 (platelets)
0.542 µM | 0.139 µM | CCCSc1nc(NCC2CC2)c2nnn([C@@H]3C[C@H](c4nnn[nH]4)[C@@H](O)[C@H]3O)c2n1 [Cpd 10, (1R,2S,3R,5R)-3-[7-(cyclopropylmethyl-amino)-5-propylsulfanyl-[1,2,3]triazolo[4,5-d]pyrimidin-3-yl]-5-(1H-tetrazol-5-yl)-cyclopentane-1,2-diol] | 1.54 µM
0.507 µM | 0.134 µM | CCCSc1nc(N[C@@H]2C[C@H]2c2ccccc2)c2nnn([C@@H]3C[C@H](Cn4ccnn4)[C@@H](O)[C@H]3O)c2n1 (mixture of isomers) [Cpd 7, (1R,2S,3R,5R)-3-{7-[(1RS,2SR)-2-phenyl-cyclopropylamino]-5-propylsulfanyl-[1,2,3]triazolo[4,5-d]pyrimidin-3-yl}-5-[1,2,3]triazol-1-ylmethyl-cyclopentane-1,2-diol] | 0.333 µM
0.265 µM | 0.735 µM | CCCSc1nc(N[C@@H]2C[C@H]2c2ccccc2)c2nnn([C@@H]3C[C@H](c4nnc(C)[nH]4)[C@@H](O)[C@H]3O)c2n1 (mixture of isomers) [Cpd 14, (1S,2R,3R,5R)-3-(5-methyl-4H-[1,2,4]triazol-3-yl)-5-{7-[(1RS,2SR)-2-phenyl-cyclopropylamino]-5-propylsulfanyl-[1,2,3]triazolo[4,5-d]pyrimidin-3-yl}-cyclopentane-1,2-diol] | 0.064 µM
0.155 µM | 0.0659 µM | CCCSc1nc(N[C@@H]2C[C@H]2c2ccccc2)c2nnn([C@@H]3C[C@H](c4nnc[nH]4)[C@@H](O)[C@H]3O)c2n1 (mixture of isomers) [Cpd 21, (1R,2S,3R,5R)-3-{7-[(1RS,2SR)-2-phenyl-cyclopropylamino]-5-propylsulfanyl-[1,2,3]triazolo[4,5-d]pyrimidin-3-yl}-5-(4H-[1,2,4]triazol-3-yl)-cyclopentane-1,2-diol] | 0.046 µM
0.045 µM | 0.0137 µM | CCCCNc1nc(SCCC)nc2c1nnn2[C@@H]1C[C@H](c2nnn[nH]2)[C@@H](O)[C@H]1O [Cpd 2, (1R,2S,3R,5R)-3-(7-butylamino-5-propylsulfanyl-[1,2,3]triazolo[4,5-d]pyrimidin-3-yl)-5-(1H-tetrazol-5-yl)-cyclopentane-1,2-diol] | 0.315 µM
0.037 µM | 0.0043 µM | CCCSc1nc(N[C@@H]2C[C@H]2c2ccccc2)c2nnn([C@@H]3C[C@H](c4nnn[nH]4)[C@@H](O)[C@H]3O)c2n1 (mixture of isomers) [Cpd 1, (1R,2S,3R,5R)-3-{7-[(1RS,2SR)-2-phenyl-cyclopropylamino]-5-propylsulfanyl-[1,2,3]triazolo[4,5-d]pyrimidin-3-yl}-5-(1H-tetrazol-5-yl)-cyclopentane-1,2-diol] | 0.037 µM
